Source: paper PMC12052742, “Engineering a newly identified alcohol dehydrogenase from Sphingobium Sp. for efficient utilization of nicotinamide cofactors biomimetics” (Bioresources and Bioprocessing, 2025)

Experiments:
SpADH2 variant A47L = experiment: Activity of variant in oxidation of syringyl alcohol with p-BANA^+ (Fig. 5), A47L; type: biochemical, Sphingobium sp. SYK-6; settings: cofactor p-BANA^+, substrate syringyl alcohol
Procedure: (§1) In the first round of screening, saturation mutagenesis was constructed for six positions (W114, T177, G172, G316, A47, and R227). […] Therefore, in the second round of mutagenesis, six additional sites within the 5 Å range of the cofactor ribose (H43, V202, T265, V288, G289, and A290) were selected for saturation mutagenesis screening (Fig. 6c and Fig. S6). Three beneficial mutations were identified. […] Subsequently, combinatorial mutagenesis was performed, resulting in 11 double variants and 3 triple variants.
(§2) Fig. 5 Relative activity of SpADH2 and its variants in oxidation of syringyl alcohol when utilizing p-BANA^+ as cofactor
(§3) In preliminary screening by spectrophotometric analysis, PBS (pH 7.5) buffer (50 µL) in a 96-well plate was pre-warmed at 30°C for 15 min, and a final concentration of 5 mM p-BANA^+ and 1 mM substrate syringyl alcohol were added, and 50 µL of crude enzyme were add to each well to start the reaction, with WT as control. The reaction mixture was incubated at 30°C for 1 h, followed by addition of fluorescent probes in a final concentration of 0.2 mM, and was subjected to determination under 537 nm as described above.

SpADH2 WT = SpADH2 WT (Sphingobium sp. SYK-6, UniProt G2IIZ8); experiment: Cofactor kinetic assay, WT; type: biochemical
Sequence of SpADH2 WT (G2IIZ8 1-372): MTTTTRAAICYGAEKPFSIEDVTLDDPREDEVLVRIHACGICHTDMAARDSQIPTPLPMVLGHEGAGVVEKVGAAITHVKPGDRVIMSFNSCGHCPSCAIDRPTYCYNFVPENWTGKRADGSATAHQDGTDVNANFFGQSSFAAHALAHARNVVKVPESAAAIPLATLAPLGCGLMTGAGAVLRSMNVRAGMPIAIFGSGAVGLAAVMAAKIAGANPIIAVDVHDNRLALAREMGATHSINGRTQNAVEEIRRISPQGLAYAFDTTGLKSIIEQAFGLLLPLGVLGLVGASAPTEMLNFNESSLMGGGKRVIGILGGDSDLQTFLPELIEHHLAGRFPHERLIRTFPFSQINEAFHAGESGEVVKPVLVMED
Procedure: (§4) Specific activity of SpADH2 in substrate spectrum study was measured spectrophotometrically. PBS (pH 7.5) buffer was pre-heated at 30°C for 15 min. For NAD^+, 0.05 µg SpADH2 was added to the PBS buffer (100 µL), and a final concentration of 2 mM NAD^+ was added. For tsNCBs cofactor p-BANA^+, 5 µg SpADH2 and a final concentration of 7.5 mM p-BANA^+ was added. The mixture was carried out in a 96-well microplate, and a final concentration of 5 mM substrate was added to start the reaction. The microplate was incubated in 30°C for 1 h. Florescent probes (2-[2-(1,4-dihydro-1-methyl-3-quinolinyl)ethenyl]-1,3,3-trimethyl-3H-indolium) in a final concentration of 0.2 mM (100 µL) was added (Scheme S1), and the microplate was placed in a microplate reader immediately for measurement under 537 nm (Fomin et al. [2016]).
(§5) Kinetic analysis of SpADH2 and its variants were carried out following Michaelis-Menten equation or Michaelis-Menten excess substrate inhibition equation. For of the substrate kinetic assays, concentrations of cofactors were fixed at 5 mM for NAD^+ and 7.5 mM for p-BANA^+. For cofactor kinetic assays, the concentration of 1a was fixed at 5 mM.
(§6) Specific activity was determined spectrophotometrically as above except that gradient 1a (0−20 mM) or cofactor (0−35 mM) concentrations were applied.
(§7) Cofactor specificity ratio (CSR) represents the ratio of catalytic efficiency of p-BANA^+ to NAD^+ for each enzyme, and relative specificity (RS) stands for the CSR ratio of variants to WT (King et al. [2020]).

[1] = system: SpADH2 variant H43L/A290I; experiment: Cofactor kinetic assay, H43L/A290I; type: biochemical, Sphingobium sp. SYK-6
Procedure: as §4, §5, §6, §7

SpADH2 variant H43L [2] = experiment: Cofactor kinetic assay, H43L; type: biochemical, Sphingobium sp. SYK-6
Procedure: as §4, §5, §6, §7

SpADH2 variant A290I = experiment: Activity of variant in oxidation of syringyl alcohol with p-BANA^+ (Fig. 5), A290I; type: biochemical, Sphingobium sp. SYK-6; settings: cofactor p-BANA^+, substrate syringyl alcohol
Procedure: as §1, §2, §3

SpADH2 variant H43L [3] = experiment: Substrate kinetic assay, H43L; type: biochemical, Sphingobium sp. SYK-6
Procedure: as §4, §5, §6, §7

SpADH2 variant A47G = experiment: Activity of variant in oxidation of syringyl alcohol with p-BANA^+ (Fig. 5), A47G; type: biochemical, Sphingobium sp. SYK-6; settings: cofactor p-BANA^+, substrate syringyl alcohol
Procedure: as §1, §2, §3

SpADH2 = experiment: Cofactor spectrum of syringyl alcohol oxidation (HPLC specific activity), WT; type: biochemical, Sphingobium sp. SYK-6
Procedure: Fig. 2 Cofactor spectrum of syringyl alcohol oxidation catalyzed by SpADH2. The darkness of the background color for each cofactor stands for the activity of SpADH2 utilizing various cofactors. (a) NAD(P) ^+ and NMN^+ are shown in purple background. (b) tsNCBs are shown in cyan background. The evaluation of cofactor spectrum of SpADH2 was carried out under following conditions: 50 mM PBS buffer (pH 7.5) and 30℃, with 1a (5 mM) as substrate and different cofactors (7.5 mM) as cofactor. For NAD(P)^+ and NMN^+, 0.05 µg SpADH2 was added, and for tsNCBs, 5 µg SpADH2 was added. The results were analyzed by HPLC after 1 h reaction
Specific activity of SpADH2 in cofactor spectrum study was determined by HPLC analysis. PBS (pH 7.5) buffer was pre-heated at 30°C for 15 min. For NAD(P)^+ and NMN^+, 0.05 µg SpADH2 was added to PBS buffer (100 µL). For tsNCBs, 5 µg SpADH2 was added. A final concentration of 7.5 mM cofactor was added to the reaction mixture. Finally, a final concentration of 5 mM substrate was added to start the reaction. The reactions were conducted at 30°C.
One unit of enzyme activity is defined as the amount of enzyme required to form 1 µmol 1b per minute at pH 7.5 and 30°C. Same reaction without cofactor was used as a blank control.

SpADH2 variant A290V = experiment: Activity of variant in oxidation of syringyl alcohol with p-BANA^+ (Fig. 5), A290V; type: biochemical, Sphingobium sp. SYK-6; settings: cofactor p-BANA^+, substrate syringyl alcohol
Procedure: as §1, §2, §3

[4] = cofactor (= label) varied, 1a fixed at 5 mM
[5] = cofactor (= label) varied, 1a fixed at 5 mM, read-out: Ki (cofactor inhibition)
[6] = cofactor (= label) varied, 1a fixed at 5 mM, pH 7.5, 30°C

NC(=O)c1ccc[n+](Cc2ccc(C(=O)O)cc2)c1 [p-BANA^+, para-3-carbamoyl-1-(4-carboxybenzyl)pyridin-1-ium]
fold higher activity than WT (SpADH2 variant A47L): 4.3 fold | kcat (SpADH2 WT; [4]): 1.6 ± 0.5 min^− 1 | Ki (SpADH2 WT; [5]): 12 ± 4.7 mM | Cofactor specificity ratio (catalytic efficiency of p-BANA^+ to NAD^+) (SpADH2 WT; cofactor kinetics): 3.81×10^-5 | kcat [1, 4]: 8.7 ± 1.3 min^− 1 | Km [1, 6]: 13 ± 2.7 mM | Ki [1, 5]: 15 ± 3.5 mM | Cofactor specificity ratio (catalytic efficiency of p-BANA^+ to NAD^+) ([1]; cofactor kinetics): 1.94×10^-2 | Relative specificity (CSR ratio of variant to WT) ([1]; cofactor kinetics): 509 | kcat (SpADH2 variant H43L [2]; [4]): 5.1 ± 2.0 min^− 1 | Km (SpADH2 variant H43L [2]; [6]): 28 ± 13 mM | Ki (SpADH2 variant H43L [2]; [5]): 5.4 ± 2.5 mM | Cofactor specificity ratio (catalytic efficiency of p-BANA^+ to NAD^+) (SpADH2 variant H43L [2]; cofactor kinetics): 3.08×10^-4 | Relative specificity (CSR ratio of variant to WT) (SpADH2 variant H43L [2]; cofactor kinetics): 8.08 | fold increase in activity vs WT (SpADH2 variant A290I): 10 fold | kcat (SpADH2 variant H43L [3]; 1a varied, cofactor (= label) fixed: 5 mM NAD^+ or 7.5 mM p-BANA^+): 2.5 ± 0.9 min^− 1 | Cofactor specificity ratio (catalytic efficiency of p-BANA^+ to NAD^+) (SpADH2 variant H43L [3]; substrate kinetics): 9.30×10^-4 | Relative specificity (CSR ratio of variant to WT) (SpADH2 variant H43L [3]; substrate kinetics): 61.2 | fold increase in kcat vs WT (SpADH2 variant H43L [3]; substrate kinetics, cofactor = label): 2 fold | fold higher activity than WT (SpADH2 variant A47G): 1.3 fold | activity of SpADH2 with the tsNCB as cofactor (SpADH2; 1a 5 mM, cofactor 7.5 mM, pH 7.5, 30℃, 5 µg SpADH2, 1 h): 11.55 U/g | fold increasement of activity compared with preliminary assay (SpADH2; optimized conditions vs preliminary assay): 7.1 fold | fold increase in activity vs WT (SpADH2 variant A290V): 3 fold
